Source: US20230089867A1, “CYCLIC PENTAMER COMPOUNDS AS PROPROTEIN CONVERTASE SUBTILISIN/KEXIN TYPE 9 (PCSK9) INHIBITORS FOR THE TREATMENT OF METABOLIC DISORDER” (Novartis AG, priority 2018, published 2023)

Biological target: human PCSK9 (Homo sapiens, UniProt Q8NBP7)
Experiment: PCSK9 ligand binding TR-FRET assay (interference with binding of human PCSK9 to human LDLR)
Conditions: for Max % inhibition: PCSK9 FRET assay, efficacy (Amax), 100% = 1 uM unlabeled human PCSK9, 0% = DMSO; for IC50: TR-FRET, human PCSK9 Alexa Fluor 647 / human LDLR extracellular domain-Europium Kryptate, read-out: PCSK9 FRET Assay IC50
In short: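 Threefold compound dilutions were pre-incubated 30 min with PCSK9, after which 4 nM Europium Kryptate-tagged human LDLR ectodomain was added for a further 2 h.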

Chain of human PCSK9 (Q8NBP7 153-692): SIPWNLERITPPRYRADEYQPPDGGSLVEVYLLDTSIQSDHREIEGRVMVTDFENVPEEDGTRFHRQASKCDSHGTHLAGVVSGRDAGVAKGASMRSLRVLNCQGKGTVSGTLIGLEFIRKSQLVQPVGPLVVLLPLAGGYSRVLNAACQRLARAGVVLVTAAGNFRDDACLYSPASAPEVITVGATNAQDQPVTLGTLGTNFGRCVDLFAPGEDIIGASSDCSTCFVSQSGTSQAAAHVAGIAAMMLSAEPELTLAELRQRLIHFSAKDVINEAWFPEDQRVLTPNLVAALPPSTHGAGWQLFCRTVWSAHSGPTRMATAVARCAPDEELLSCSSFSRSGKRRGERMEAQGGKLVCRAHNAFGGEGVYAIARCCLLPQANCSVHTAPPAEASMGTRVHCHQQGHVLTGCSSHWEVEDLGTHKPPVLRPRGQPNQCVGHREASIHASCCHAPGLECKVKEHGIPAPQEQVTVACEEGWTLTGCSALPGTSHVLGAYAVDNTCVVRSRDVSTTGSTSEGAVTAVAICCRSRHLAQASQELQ
Chain of human PCSK9 (Q8NBP7 31-152 partner limits assumed): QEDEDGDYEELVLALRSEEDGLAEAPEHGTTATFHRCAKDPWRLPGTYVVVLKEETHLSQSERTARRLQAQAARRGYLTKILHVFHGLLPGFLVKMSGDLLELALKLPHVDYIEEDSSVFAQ

| SMILES | Max % inhibition | IC50 |
| --- | --- | --- |
| COC[C@@H]1NC(=O)[C@H](C)N(Cc2ccc(Cl)cc2Oc2ccc(-c3cnc(C(C)O)n3C)cc2)C(=O)C[C@@H](Cc2ccccc2)C(=O)N(C)[C@@H](C)CNC(=O)C[C@H](Cc2ccc(Cl)cc2)N(C)C1=O (stereo partly drawn) [Compound 167, (2S,5S,8S,13S,16R)-16-benzyl-1-(4-chloro-2-(4-(2-(1-hydroxyethyl)-1-methyl-1H-imidazol-5-yl)phenoxy)benzyl)-8-(4-chlorobenzyl)-5-(methoxymethyl)-2,7,13,14-tetramethyl-1,4,7,11,14-pentaazacyclooctadecane-3,6,10,15,18-pentaone] | 81.26% | 1.8 nM |
| COC[C@@H]1NC(=O)[C@H](C)N(Cc2c[nH]c(=O)cc2Oc2ccc(-c3cnc(CN(C)C)n3C)cc2)C(=O)C[C@@H](Cc2ccccc2)C(=O)N(C)[C@@H](C)CNC(=O)C[C@H](Cc2ccc(Cl)cc2)N(C)C1=O [Compound 168, (2S,5S,8S,13S,16R)-16-benzyl-8-(4-chlorobenzyl)-1-((4-(4-(2-((dimethylamino)methyl)-1-methyl-1H-imidazol-5-yl)phenoxy)-6-oxo-1,6-dihydropyridin-3-yl)methyl)-5-(methoxymethyl)-2,7,13,14-tetramethyl-1,4,7,11,14-pentaazacyclooctadecane-3,6,10,15,18-pentaone] | 85.66% | 67.7 nM |
| COC[C@@H]1NC(=O)[C@H](C)N(Cc2ccc(Cl)cc2Oc2ccc(-c3cnc(CN4CCCC4)n3C)cc2)C(=O)C[C@@H](Cc2ccccc2)C(=O)N(C)[C@@H](CCCCN)CNC(=O)C[C@H](Cc2ccc(Cl)cc2)N(C)C1=O.O=C(O)C(F)(F)F [Compound 169, (2S,5S,8S,13S,16R)-13-(4-aminobutyl)-16-benzyl-1-(4-chloro-2-(4-(1-methyl-2-(pyrrolidin-1-ylmethyl)-1H-imidazol-5-yl)phenoxy)benzyl)-8-(4-chlorobenzyl)-5-(methoxymethyl)-2,7,14-trimethyl-1,4,7,11,14-pentaazacyclooctadecane-3,6,10,15,18-pentaone trifluoroacetate] | 91.73% | 1.3 nM |
| COC[C@@H]1NC(=O)[C@H](C)N(Cc2ccc(Cl)cc2Oc2ccc(-c3cnc4n3CCN(C(=O)[C@@H]3CCOC3)C4)cc2)C(=O)C[C@@H](Cc2ccccc2)C(=O)N(C)[C@@H](C)CNC(=O)C[C@H](Cc2ccc(Cl)cc2)N(C)C1=O [Compound 171, (2S,5S,8S,13S,16R)-16-benzyl-1-(4-chloro-2-(4-(7-((R)-tetrahydrofuran-3-carbonyl)-5,6,7,8-tetrahydroimidazo[1,2-a]pyrazin-3-yl)phenoxy)benzyl)-8-(4-chlorobenzyl)-5-(methoxymethyl)-2,7,13,14-tetramethyl-1,4,7,11,14-pentaazacyclooctadecane-3,6,10,15,18-pentaone] | 91.76% | 3.1 nM |
| COC[C@@H]1NC(=O)[C@H](CCC(=O)N2CCOCC2)N(Cc2ccc(Cl)cc2Oc2ccc(-c3cnc(CN(C)C)n3C)cc2)C(=O)C[C@@H](Cc2ccccc2)C(=O)N(C)[C@@H](C)CNC(=O)C[C@H](Cc2ccc(Cl)cc2)N(C)C1=O [Compound 175, (2S,5S,8S,13S,16R)-16-benzyl-1-(4-chloro-2-(4-(2-((dimethylamino)methyl)-1-methyl-1H-imidazol-5-yl)phenoxy)benzyl)-8-(4-chlorobenzyl)-5-(methoxymethyl)-7,13,14-trimethyl-2-(3-morpholino-3-oxopropyl)-1,4,7,11,14-pentaazacyclooctadecane-3,6,10,15,18-pentaone] | 102.55% | 5.8 nM |

Continued by falling IC50, values first:

| Max % inhibition | IC50 | SMILES |
| --- | --- | --- |
| 84.80% | 73.3 nM | CC[C@H]1C(=O)N[C@@H](COC)C(=O)N(C)[C@@H](Cc2ccc(Cl)cc2)CC(=O)NC[C@H](C)N(C)C(=O)[C@H](C)CC(=O)N1Cc1ccc(Cl)cc1Oc1ccc(-c2cnc(CN(C)C)n2C)cc1 [Compound 173, (2S,5S,8S,13S,16R)-1-(4-chloro-2-(4-(2-((dimethylamino)methyl)-1-methyl-1H-imidazol-5-yl)phenoxy)benzyl)-8-(4-chlorobenzyl)-2-ethyl-5-(methoxymethyl)-7,13,14,16-tetramethyl-1,4,7,11,14-pentaazacyclooctadecane-3,6,10,15,18-pentaone] |
| 102.02% | 11.4 nM | COC[C@@H]1NC(=O)[C@H](CC(=O)OC(C)(C)C)N(Cc2ccc(Cl)cc2Oc2ccc(-c3cnc(CN(C)C)n3C)cc2)C(=O)C[C@@H](Cc2ccccc2)C(=O)N(C)[C@@H](C)CNC(=O)C[C@H](Cc2ccc(Cl)cc2)N(C)C1=O [Compound 174, tert-butyl 2-((2S,5S,8S,13S,16R)-16-benzyl-1-(4-chloro-2-(4-(2-((dimethylamino)methyl)-1-methyl-1H-imidazol-5-yl)phenoxy)benzyl)-8-(4-chlorobenzyl)-5-(methoxymethyl)-7,13,14-trimethyl-3,6,10,15,18-pentaoxo-1,4,7,11,14-pentaazacyclooctadecan-2-yl)acetate] |
| 96.70% | 4.3 nM | COC[C@@H]1NC(=O)[C@H](C)N(Cc2c(F)ccc(F)c2Oc2ccc(-c3cnc(CN(C)C)n3C)cc2)C(=O)C[C@@H](Cc2ccccc2)C(=O)N(C)[C@@H](C)CNC(=O)C[C@H](Cc2ccc(Cl)cc2)N(C)C1=O [Compound 166, (2S,5S,8S,13S,16R)-16-benzyl-8-(4-chlorobenzyl)-1-(2-(4-(2-((dimethylamino)methyl)-1-methyl-1H-imidazol-5-yl)phenoxy)-3,6-difluorobenzyl)-5-(methoxymethyl)-2,7,13,14-tetramethyl-1,4,7,11,14-pentaazacyclooctadecane-3,6,10,15,18-pentaone] |
| 102.44% | 1.4 nM | COC[C@@H]1NC(=O)[C@H](C)N(Cc2ccc(Cl)cc2Oc2ccc(-c3cnc(CN(C)C)n3C)cc2)C(=O)C[C@@H](Cc2cccc[n+]2[O-])C(=O)N(C)[C@H]2CCCC[C@@H]2NC(=O)C[C@H](Cc2ccc(Cl)cc2)N(C)C1=O [Compound 172, 2-(((4S,7S,10S,14R,16aS,20aS)-11-(4-chloro-2-(4-(2-((dimethylamino)methyl)-1-methyl-1H-imidazol-5-yl)phenoxy)benzyl)-4-(4-chlorobenzyl)-7-(methoxymethyl)-5,10,16-trimethyl-2,6,9,12,15-pentaoxodocosahydrobenzo[l][1,4,7,11,14]pentaazacyclooctadecin-14-yl)methyl)pyridine 1-oxide] |
| 102.49% | 1.3 nM | C[C@H]1CNC(=O)C[C@H](Cc2ccc(Cl)cc2)N(C)C(=O)[C@H](COC(F)F)NC(=O)[C@H](C)N(Cc2ccc(Cl)cc2Oc2ccc(-c3cnc(CN(C)C)n3C)cc2)C(=O)C[C@@H](Cc2ccccc2)C(=O)N1C [Compound 170, (2S,5S,8S,13S,16R)-16-benzyl-1-(4-chloro-2-(4-(2-((dimethylamino)methyl)-1-methyl-1H-imidazol-5-yl)phenoxy)benzyl)-8-(4-chlorobenzyl)-5-((difluoromethoxy)methyl)-2,7,13,14-tetramethyl-1,4,7,11,14-pentaazacyclooctadecane-3,6,10,15,18-pentaone] |
